The values that follow are results of earlier work, collected in publication PMC8728392, “Synthesis, Anticancer Assessment, and Molecular Docking of Novel Chalcone-Thienopyrimidine Derivatives in HepG2 and MCF-7 Cell Lines” (Oxidative Medicine and Cellular Longevity, 2021).

By IC50 is commonly meant the midpoint of a concentration-inhibition curve.

For one data set, the system named is Bcl-2 16me. Also noted: method as in PMID 19027294. The settings on record: cited from earlier work.
The subject of the next data set is Bcl-2 26me. Details: method as in PMID 19027294. The conditions noted are these: cited from earlier work.

Each structure is given as a SMILES string.

Regarding `Cc1c(Cl)c(C(=O)N(c2ccccc2)c2ccccc2)nn1-c1ccccc1C(=O)N1Cc2ccccc2CC1CN` (centres unmarked) [DRO], the IC50 in the data set on Bcl-2 16me was 30 nM; in the data set on Bcl-2 26me, 100 nM.
